{"source": "patent US8349553B2", "about": "“Jasmonate based assays for identifying compounds that selectively inhibit mitochondrial bound hexokinases” (Ramot at Tel Aviv University Ltd., priority 2007, dated 2013)", "key": {"[1]": {"tested_on": "mitochondrial fraction isolated from CT-26 tumors", "assay": "Cytochrome c release from mitochondrial fraction", "format": "biochemical, murine", "conditions": "3 mM", "method": "Freshly isolated mitochondrial fraction, at a final concentration of 2 mg/ml in a volume of 100 μL, was incubated at 37° C. with the examined agent, e.g. methyl jasmonate, in a KCl-based respiratory buffer (150 mM KCl, 25 mM NaHCO3, 1 mM MgCl2, 3 mM KH2PO4, 20 mM Hepes, pH 7.4; Pastorino, 2002). Potassium succinate (5 mM) was added as respiratory substrate (Azoulay-Zohar, 2004). For the determination of cytochrome c release, mitochondrial fraction was pelleted at 20,000×g for 10 minutes at 4° C. Pellets were incubated for 40 minutes with lysis buffer (Tris HCl, pH 8, 20 mM, NaCl 137 mM, EDTA 2 mM, pH 8, 1% Triton-X-100, Protease Inhibitors cocktail: Sigma) on ice (Fingrut, 2005). Pellet lysates and supernatants were separated on 12% SDS-PAGE gels and electroblotted onto nitrocellulose membranes. Cytochrome c was detected by specific antibody (1:1000, BD PharMingen, San Diego, Calif.). Antigen-antibody complexes were stained with horseradish peroxidase-conjugated antibody (1:10,000, Santa Cruz Biotechnology, CA) and enhanced chemiluminescence (ECL) reagent (EZ-ECL, Biological Industries, Beit Haemek, Israel), and exposed to ECL film (Eastman Kodak, Rochester, N.Y., U.S.A.). Cytochrome c release from mitochondrial fraction isolated from CT-26 tumors occurred within the same time frame (15-60 minutes) required to detach hexokinase from mitochondria (FIG. 3). […]"}, "[2]": {"tested_on": "HKI and HKII (mitochondrial fraction of B16 tumors)", "assay": "Western blot of supernatants with anti-HKI and anti-HKII, B16 tumor mitochondrial fraction", "format": "biochemical, murine", "conditions": "B16 tumor mitochondrial fraction supernatant", "method": "(§1) For analysis of hexokinase levels, the experiments were performed similarly to hexokinase detachment assay described above, and unbound hexokinase in the supernatant fraction was extracted as described in Fingrut (2005). Samples were separated by sodium dodecylsulfate-polyacrylamide gel (7%) electrophoresis followed by immunoblotting. The blots were probed with specific anti-HKI or anti-HKII antibodies (1:300, Santa-Cruz Biotechnology, CA, USA). Hexokinase-antibody complexes were stained with HRP-conjugated antibody (1:10,000, Santa-Cruz Biotechnology, CA, USA). Enhanced chemiluminescence (ECL) reagent (Biological Industries, Beit Haemek, Israel) was added, and the blots were exposed to ECL film (Eastman Kodak, Rochester, N.Y., USA). Hexokinase detachment from mitochondrial fraction is not limited to CT-26 colon carcinoma. Mitochondrial fractions isolated from different cancer cells, namely Molt-4 cells, BCL-1 leukemic cells and B16 melanoma tumors were incubated for 30 minutes at 37° C., and the activity of unbound hexokinase was measured and compared to the activity of spontaneously (control) detached hexokinase. […] The supernatant of the experiments were separated on SDS-PAGE and probed with anti-HKI and anti-HKII antibodies."}, "purified rat brain HKI": {"target": "T1, purified rat brain HKI (Rattus norvegicus, UniProt P05708)", "T1 construct": "from tissue; host or cells: rat brain mitochondria", "T1 sequence (P05708 whole entry)": "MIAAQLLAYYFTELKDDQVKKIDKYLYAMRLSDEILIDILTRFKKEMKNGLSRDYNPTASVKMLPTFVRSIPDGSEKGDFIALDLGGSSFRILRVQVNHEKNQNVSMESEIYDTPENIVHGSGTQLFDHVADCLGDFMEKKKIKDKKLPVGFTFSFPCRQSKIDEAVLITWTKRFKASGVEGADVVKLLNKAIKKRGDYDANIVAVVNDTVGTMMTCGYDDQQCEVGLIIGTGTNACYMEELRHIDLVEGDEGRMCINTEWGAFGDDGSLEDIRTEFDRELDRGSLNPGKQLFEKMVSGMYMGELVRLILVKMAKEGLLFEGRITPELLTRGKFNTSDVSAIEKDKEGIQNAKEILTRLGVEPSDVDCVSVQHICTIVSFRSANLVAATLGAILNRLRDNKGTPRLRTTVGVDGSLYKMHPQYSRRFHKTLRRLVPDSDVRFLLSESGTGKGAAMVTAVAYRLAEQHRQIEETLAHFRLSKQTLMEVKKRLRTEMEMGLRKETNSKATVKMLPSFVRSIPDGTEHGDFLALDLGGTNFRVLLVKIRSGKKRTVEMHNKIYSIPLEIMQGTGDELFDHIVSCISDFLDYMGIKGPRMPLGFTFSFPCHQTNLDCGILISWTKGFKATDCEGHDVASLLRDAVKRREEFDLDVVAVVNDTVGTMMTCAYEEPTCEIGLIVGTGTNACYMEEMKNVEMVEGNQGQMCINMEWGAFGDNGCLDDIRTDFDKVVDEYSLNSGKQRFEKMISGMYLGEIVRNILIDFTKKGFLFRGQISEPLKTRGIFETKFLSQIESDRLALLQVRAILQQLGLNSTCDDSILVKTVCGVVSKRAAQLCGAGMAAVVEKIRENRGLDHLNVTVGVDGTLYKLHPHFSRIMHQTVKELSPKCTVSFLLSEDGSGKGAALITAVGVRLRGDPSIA", "assay": "Surface plasmon resonance analysis of jasmonate-HK interactions", "format": "binding", "conditions": "analyte injected at varying concentrations (MJ 0.375-6 mM); 25° C.", "method": "Rat brain HK-I was purified as following, crude brain mitochondria containing tightly bound HK-I were incubated with 1.2 mM glucose-6-phosphate and 0.5 mM K-EDTA to release the enzyme into the soluble fraction. Further purification of HK-I was achieved by affinity chromatography on Cibacron Blue-agarose (Pharmacia). The purified enzyme was concentrated and washed in 0.5 mM K-EDTA, 10 mM glucose, 1 mM dithiothreitol and 10 mM K-Hepes, pH 7.8, using an Amicon device and a 50,000 Da molecular mass cut-off membrane (Spectrum; type C). The concentrated enzyme (up to 1 mg/ml; 30-60 units/mg) was frozen in liquid nitrogen and stored at −80° C. until use (Azoulay-Zohar, 2004).\nSurface plasmon resonance (SPR) is an optical biosensor technique that measures molecular binding events at a metal surface by detecting changes in the local refractive index. SPR is the surface-sensitive technique ideal for studying interactions between immobilized biomolecules (ligands) and a solution-phase analyte. The biosensor response is directly proportional to the mass of the bound analyte. The advantage of SPR for investigation of small molecular weight analytes over conventional techniques such as fluorescence or enzyme-linked immunosorbent assay is detection of an analyte being label-free and direct, without the need for labeling of analyte or multistep detection protocols (sandwich assay). […]"}, "[3]": {"tested_on": "HKI and HKII (mitochondrial fraction of Molt-4 cells)", "assay": "Western blot of supernatants with anti-HKI and anti-HKII, Molt-4 mitochondrial fraction", "format": "biochemical, human", "conditions": "Molt-4 mitochondrial fraction supernatant", "method": "as §1"}, "[4]": {"tested_on": "rabbit immunoglobulin G (Rb IgG)", "assay": "Surface plasmon resonance, irrelevant protein control", "format": "binding", "conditions": "6 mM and 3 mM", "method": "SPR using ProteOn-EP5 (Bio-Rad, Hercules, Calif., USA) system has been applied to study the direct interaction of methyl jasmonate with hexokinase. This system allowed measuring ligand-analyte interactions in a 6×6 format in real time. Purified rat brain HKI and rabbit immunoglobulin G (Rb IgG; ligands) were diluted in 10 mM Na acetate pH 4 and 4.5, respectively, and coupled to a GLM sensor surface activated with 37.5 mg/ml N-Ethyl-N′-(3′ dimethylaminopropyl) carbodiimide hydrochloride and 7.5 mg/ml N-hydroxysuccinimide. HKI and IgG were added to saturate the chip at 100 μg/ml. Remaining reactive groups on the chip were then inactivated with 1 M ethanolamine pH 8.5. […] Methyl jasmonate and jasmonic acid (analytes) were diluted in running buffer (PBS X 1 with 0.005% Tween and 5% DMSO) and injected onto the sensor chip at varying concentrations. All experiments were performed at flow rate of 50 μl/min, at 25° C."}}, "data": [{"compound": "CC/C=C\\CC1C(=O)CCC1CC(=O)OC", "note": "(stereo not drawn) [methyl jasmonate]", "values": [{"measurement": "time frame of cytochrome c release", "setting": "[1]; CT-26 tumor mitochondrial fraction", "value": "15 to 60", "unit": "min"}, {"measurement": "release of cytochrome c from isolated mitochondrial fraction", "setting": "[1]; CT-26 tumor, 37° C.", "value": "caused time-dependent release of cytochrome c"}, {"measurement": "detachment of hexokinase confirmed by immunoblot (anti-HKI, anti-HKII)", "setting": "[2]", "value": "detachment of hexokinase from mitochondrial fraction of the various cancer cells was further confirmed"}, {"measurement": "binding to immobilized hexokinase (SPR)", "setting": "purified rat brain HKI", "value": "bind to purified rat brain HKI in a dose-dependent manner"}, {"measurement": "detachment of hexokinase confirmed by immunoblot (anti-HKI, anti-HKII)", "setting": "[3]", "value": "detachment of hexokinase from mitochondrial fraction of the various cancer cells was further confirmed"}, {"measurement": "binding to immobilized Rb IgG (SPR)", "setting": "[4]", "value": "binds to hexokinase but not to Rb IgG"}]}]}
